Here are results for one compound from US12077503B2, “Substituted cyclic amides and their use as herbicides” (FMC CORPORATION, priority 2015, dated 2024).

What all share (format): in vivo
One test relates to corn (Zea mays). The test is described as follows: Test A postemergence. The following applies: Zea mays, post-emergence, 240 h, 125 g ai/ha, postemergence; visual injury after approximately 10 d; 0 to 100 scale (0 no effect, 100 complete control). In a few lines: (§1)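 Ratings of 0 (no effect) to 100 (complete control) come from visual comparison with untreated controls roughly 10 d after treatment. Test chemicals, formulated in a non-phytotoxic solvent mixture with surfactant, were applied either as a preemergence directed soil spray on seeded soil or postemergence to one- to two-leaf plants 2 to 10 cm tall.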

For test [1], the system named is Galium (catchweed bedstraw, Galium aparine). The experiment in a line: Test A postemergence. The following applies: Galium, post-emergence, 240 h, 125 g ai/ha, postemergence; visual injury after approximately 10 d; 0 to 100 scale (0 no effect, 100 complete control); read-out: Plant response rating, Galium. In a few lines:
as §1

For test [2], the system named is barnyardgrass (Echinochloa crus-galli). The experiment in a line: Test A postemergence. The following applies: Echinochloa crus-galli, post-emergence, 240 h, 125 g ai/ha, postemergence; visual injury after approximately 10 d; 0 to 100 scale (0 no effect, 100 complete control); read-out: Plant response rating, Barnyardgrass. In a few lines: as §1
Test [3] has as its system giant foxtail (Setaria faberii). The experiment in a line: Test A postemergence. The following applies: Setaria faberi, post-emergence, 240 h, 125 g ai/ha, postemergence; visual injury after approximately 10 d; 0 to 100 scale (0 no effect, 100 complete control); read-out: Plant response rating, Foxtail, Giant. In a few lines:
as §1

For test [4], the system named is wheat (Triticum aestivum). The test is described as follows: Test A postemergence. The following applies: Triticum aestivum, post-emergence, 240 h, 125 g ai/ha, postemergence; visual injury after approximately 10 d; 0 to 100 scale (0 no effect, 100 complete control); read-out: Plant response rating, Wheat. In a few lines: as §1
In test [5] the test system is pigweed (Amaranthus retroflexus). The test is described as follows: Test A postemergence. The following applies: Amaranthus retroflexus, post-emergence, 240 h, 125 g ai/ha, postemergence; visual injury after approximately 10 d; 0 to 100 scale (0 no effect, 100 complete control); read-out: Plant response rating, Pigweed. In a few lines:
as §1

Test [6] has as its system Kochia (Kochia scoparia). The test is described as follows: Test A postemergence. As to conditions: Bassia scoparia, post-emergence, 240 h, 125 g ai/ha, postemergence; visual injury after approximately 10 d; 0 to 100 scale (0 no effect, 100 complete control); read-out: Plant response rating, Kochia. In a few lines: as §1
The test system of test [7] is ryegrass, Italian (Italian ryegrass, Lolium multiflorum). The experiment in a line: Test A postemergence. As to conditions: Lolium multiflorum, post-emergence, 240 h, 125 g ai/ha, postemergence; visual injury after approximately 10 d; 0 to 100 scale (0 no effect, 100 complete control); read-out: Plant response rating, Ryegrass, Italian. In a few lines:
as §1

In test [8] the test system is ragweed (common ragweed, Ambrosia elatior). The experiment in a line: Test A postemergence. As to conditions: Ambrosia artemisiifolia, post-emergence, 240 h, 125 g ai/ha, postemergence; visual injury after approximately 10 d; 0 to 100 scale (0 no effect, 100 complete control); read-out: Plant response rating, Ragweed. In a few lines:
as §1

Test [9] concerns barnyardgrass (Echinochloa crus-galli). The experiment in a line: Test A preemergence. As to conditions: Echinochloa crus-galli, pre-emergence, 240 h, preemergence, read-out: Plant response rating, Barnyardgrass. In a few lines: as §1
Test [10] relates to giant foxtail (Setaria faberii). The experiment in a line: Test A preemergence. As to conditions: Setaria faberi, pre-emergence, 240 h, preemergence, read-out: Plant response rating, Foxtail, Giant. In a few lines:
as §1

For test [11], the system named is pigweed (Amaranthus retroflexus). The test is described as follows: Test A preemergence. As to conditions: Amaranthus retroflexus, pre-emergence, 240 h, preemergence, read-out: Plant response rating, Pigweed.
Test [12] concerns Kochia (Kochia scoparia). The experiment in a line: Test A preemergence. As to conditions: Bassia scoparia, pre-emergence, 240 h, preemergence, read-out: Plant response rating, Kochia. In a few lines:
as §1

The test system of test [13] is ryegrass, Italian (Italian ryegrass, Lolium multiflorum). The test is described as follows: Test A preemergence. As to conditions: Lolium multiflorum, pre-emergence, 240 h, preemergence, read-out: Plant response rating, Ryegrass, Italian. In a few lines: as §1
Test [14] deals with ragweed (common ragweed, Ambrosia elatior). The experiment in a line: Test A preemergence. As to conditions: Ambrosia artemisiifolia, pre-emergence, 240 h, preemergence, read-out: Plant response rating, Ragweed. In a few lines: as §1
Setting [15] is: 125 g ai/ha, visual rating after approx. 10 d, 0 to 100 scale where 0 is no effect and 100 is complete control.
Setting [16] is: 500 g ai/ha, 0 to 100 scale, 0 = no effect, 100 = complete control.

In the test on corn (Zea mays), `CSc1ccccc1NC(=O)[C@H]1C(=O)N(C)C[C@@H]1c1cc(F)cc(F)c1` [Compound 738] came in with a Corn plant response rating (crop injury, 0 = no effect, 100 = complete kill) at 125 g/ha of 20%. The pest or weed control at 125 g/ha amounted to 50% in test [1]; 80% in test [2]; 70% in test [3]; 20% in test [5]; 20% with Kochia (Kochia scoparia) [6]; 0% in [7]. In addition, the pest or weed control at 125 g/ha in test [8] was 0%; in [9] (setting [15]) it was 90%; in test [10] (setting [15]), 90%; in test [11] (setting [15]), 0%; in the test on Kochia (Kochia scoparia) [12] (setting [15]) it was 0%; in test [13] (setting [15]), 0%. For the same compound, the pest or weed control at 125 g/ha in test [14] (setting [15]) turned out to be 0%. Moreover, the plant injury at 125 g/ha in [4] stood at 0%. Also, the pest or weed control at 500 g/ha in test [9] (setting [16]) is 100%; in [10] (setting [16]), 100%; in test [11] (setting [16]), 50%; in the test with Kochia (Kochia scoparia) [12] (setting [16]) it was 70%; in test [13] (setting [16]), 20%; in test [14] (setting [16]) it was 70%.
